Assay results from article PMC5615155 (Toxicology Reports, 2017).

Assays:
[1] = solubility / dissolution; format: physicochemical; conditions: S8069 at 10 mg/mL; S2218 at all dose levels
[2] = system: 68 receptor binding assays for GPCRs, ion channels, nuclear receptors, transporters; assay: receptor lead profiling panel; conditions: 10 μM
[3] = single-dose pharmacokinetics and oral bioavailability; format: in vivo, Sprague-Dawley rats; conditions: for clearance: CL, S2218 iv 1 mg/kg bw
[4] = target: hERG (Homo sapiens, UniProt Q12809); assay: hERG electrophysiology; format: cell-based
hERG, sequence (Q12809 whole entry): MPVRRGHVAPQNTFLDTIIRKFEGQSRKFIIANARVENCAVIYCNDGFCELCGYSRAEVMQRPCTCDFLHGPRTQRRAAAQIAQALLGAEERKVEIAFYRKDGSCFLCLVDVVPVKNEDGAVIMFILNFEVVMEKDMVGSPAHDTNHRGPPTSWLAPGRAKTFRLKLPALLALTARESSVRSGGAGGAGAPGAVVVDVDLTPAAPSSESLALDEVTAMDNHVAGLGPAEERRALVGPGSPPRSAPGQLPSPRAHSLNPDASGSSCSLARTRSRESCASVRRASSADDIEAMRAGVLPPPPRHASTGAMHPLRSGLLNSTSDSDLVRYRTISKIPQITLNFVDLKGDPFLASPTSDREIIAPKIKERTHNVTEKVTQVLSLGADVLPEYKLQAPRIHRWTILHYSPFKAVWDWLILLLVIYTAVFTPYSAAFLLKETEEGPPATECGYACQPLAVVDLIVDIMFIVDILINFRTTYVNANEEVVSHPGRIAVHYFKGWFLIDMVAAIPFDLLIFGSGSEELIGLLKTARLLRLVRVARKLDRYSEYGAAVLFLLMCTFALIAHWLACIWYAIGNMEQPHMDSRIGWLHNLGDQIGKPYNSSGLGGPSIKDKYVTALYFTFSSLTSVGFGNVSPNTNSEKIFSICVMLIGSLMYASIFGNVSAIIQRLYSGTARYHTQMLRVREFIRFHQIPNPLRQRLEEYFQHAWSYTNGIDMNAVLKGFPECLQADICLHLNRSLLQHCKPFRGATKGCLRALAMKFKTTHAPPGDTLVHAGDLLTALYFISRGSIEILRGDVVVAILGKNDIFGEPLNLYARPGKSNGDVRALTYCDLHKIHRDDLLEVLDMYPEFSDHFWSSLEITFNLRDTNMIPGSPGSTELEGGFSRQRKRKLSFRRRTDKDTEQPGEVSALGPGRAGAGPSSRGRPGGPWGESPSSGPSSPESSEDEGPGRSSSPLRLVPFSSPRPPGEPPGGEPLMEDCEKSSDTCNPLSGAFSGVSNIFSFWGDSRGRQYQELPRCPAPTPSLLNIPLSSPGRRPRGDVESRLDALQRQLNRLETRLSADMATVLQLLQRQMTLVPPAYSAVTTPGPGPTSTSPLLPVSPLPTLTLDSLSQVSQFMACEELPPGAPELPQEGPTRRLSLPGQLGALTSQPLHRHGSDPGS

[5] = toxicokinetics in 13-week dietary study; format: in vivo, Sprague-Dawley rats
[6] = female, Sprague-Dawley, rat, plasma, iv, 1 mg/kg
[7] = female, Sprague-Dawley, rat, plasma, po, 10 mg/kg
[8] = female, Sprague-Dawley, rat, plasma, po, 30 mg/kg
[9] = female, Sprague-Dawley, rat, plasma, po, 100 mg/kg
[10] = male, Sprague-Dawley, rat, plasma, iv, 1 mg/kg
[11] = male, Sprague-Dawley, rat, plasma, po, 10 mg/kg
[12] = male, Sprague-Dawley, rat, plasma, po, 30 mg/kg
[13] = male, Sprague-Dawley, rat, plasma, po, 100 mg/kg

For `Cc1cc(C(=O)NC(C)(C)COc2cccc3c2C(N)=NS(=O)(=O)N3)cc(C)n1` [S2218, N-(1-((4-amino-2,2-dioxido-1H-benzo[c][1,2,6]thiadiazin-5-yl)oxy)-2-methylpropan-2-yl)-2,6-dimethylisonicotinamide], the “state in 1% methylcellulose dosing formulation” value [1] was “formed a suspension”, the “inhibition or stimulation in lead profiling receptor screen” value [2] was < 50% and the “female/male ratio of mean AUClast” value ([3]; IV 1 mg/kg) was 0.88. The “female/male ratio of mean Cmax” value ([3]; IV 1 mg/kg) was 1.06, the t1/2 ([3]; S2218 oral gavage 10 mg/kg bw, M, 10 mg/kg) was 45.8 ± 4.38 min and the bioavailability ([3]; both, Sprague-Dawley, rat, plasma, po, %F, both test articles, male and female rats, all doses) was 0.14 to 0.77%. The AUC(0-t) [3, 6] was 440 ± 57.1 ng·h/mL, the Cmax [3, 6] was 3150 ± 399 ng/mL and the Tmax [3, 6] was 1.98 min. The Vd [3, 6] was 0.575 L/kg, the clearance ([3]; female, Sprague-Dawley, rat, plasma, iv, 1 mg/kg, F) was 38.3 mL/min/kg and the half-life ([3]; female, Sprague-Dawley, rat, plasma, iv, 1 mg/kg, t1/2, S2218 iv 1 mg/kg bw, F) was 10.4 ± 0.24 min. The AUC(0-t) [3, 7] was 19.1 ± 10.5 ng·h/mL, the Cmax [3, 7] was 22.1 ± 8.55 ng/mL and the Tmax [3, 7] was 18.8 ± 7.5 min. It also gave an AUC(0-t) [3, 8] of 37.7 ± 14 ng·h/mL, a Cmax [3, 8] of 36.8 ± 14.8 ng/mL and a Tmax [3, 8] of 18.8 ± 7.5 min. For the same molecule, the AUC(0-t) [3, 9] was 65.9 ± 34.6 ng·h/mL, the Cmax [3, 9] was 38.7 ± 20.4 ng/mL and the Tmax [3, 9] was 15 min. The half-life ([3]; female, Sprague-Dawley, rat, plasma, po, mean t1/2 of S2218 in plasma, oral dose of S2218 or S8069, female rats) was 45 to 75 min, the “CL as % of hepatic blood flow” value ([3]; iv, F) was 69.6% and the “Vss as % of total body water volume” value ([3]; iv, F) was 86.1%. The “CL as % of hepatic blood flow” value ([3]; iv, M) was 60.9%, the “Vss as % of total body water volume” value ([3]; iv, M) was 80.2% and the AUC(0-t) [3, 10] was 500 ± 47.9 ng·h/mL. The Cmax [3, 10] was 2980 ± 291 ng/mL, the Tmax [3, 10] was 1.98 min and the Vd [3, 10] was 0.536 L/kg. For the same molecule, the clearance ([3]; male, Sprague-Dawley, rat, plasma, iv, 1 mg/kg, M) was 33.5 mL/min/kg, the half-life ([3]; male, Sprague-Dawley, rat, plasma, iv, 1 mg/kg, t1/2, S2218 iv 1 mg/kg bw, M) was 11.1 ± 1.56 min and the AUC(0-t) [3, 11] was 18.1 ± 4.84 ng·h/mL. It also gave a Cmax [3, 11] of 16.8 ± 6.03 ng/mL, a Tmax [3, 11] of 18.8 ± 7.5 min and an AUC(0-t) [3, 12] of 33.2 ± 20.7 ng·h/mL. For the same molecule, the Cmax [3, 12] was 31.2 ± 14.6 ng/mL, the Tmax [3, 12] was 22.5 ± 8.64 min and the AUC(0-t) [3, 13] was 96.6 ± 31.4 ng·h/mL. It also gave a Cmax [3, 13] of 76.3 ± 28.8 ng/mL, a Tmax [3, 13] of 20 ± 8.64 min and a half-life ([3]; male, Sprague-Dawley, rat, plasma, po, mean t1/2 of S2218 in plasma, oral dose of S2218 or S8069, male rats) of 40.2 to 51.6 min. For the same molecule, the inhibition at 10 μM [4] was < 10%, the “ACUM Ratio (dose-normalized AUC0-24h Day 91/Day 7)” value ([5]; 30 mg/kg bw, M + F) was 1.88 and the “ACUM Ratio (dose-normalized AUC0-24h Day 91/Day 7)” value ([5]; 70 mg/kg bw, M + F) was 0.954. For the same molecule, the “ACUM Ratio (dose-normalized AUC0-24h Day 91/Day 7)” value ([5]; 140 mg/kg bw, F) was 0.768, the “ACUM Ratio (dose-normalized AUC0-24h Day 91/Day 7)” value ([5]; 140 mg/kg bw, M) was 4.55 and the “ACUM Ratio (dose-normalized AUC0-24h Day 91/Day 7)” value ([5]; 140 mg/kg bw, M + F) was 2.30.
